Reference: publication PMC5011342, “A high throughput drug screening assay to identify compounds that promote oligodendrocyte differentiation using acutely dissociated and purified oligodendrocyte precursor cells” (BMC Research Notes, 2016)
Like-named read-outs stand apart in the source and are kept apart here.

Tests used:
[1] = system: acutely dissociated and purified rat OPCs; test: Acute OL differentiation assay (MBP expression/cell, immunofluorescent image quantification); type: cell-based
Summary of the method: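 Oligodendrocyte precursor cells were enriched from P6-P7 Sprague–Dawley rat brains by immunopanning (RAN-2 and GalC depletion, O4 selection), plated at 5000 cells/well in serum-free, mitogen-free differentiation media on PDL/laminin 96-well view plates, centrifuged at 200×g, and pre-incubated 1–2 h before test compounds were added in quadruplicate. On DIV4, cells were fixed, stained for MBP and DAPI, imaged automatically, and MBP expression per cell was quantified.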

[2] = system: expanded OPCs; test: cells; settings: for viability at 0.1 µM / viability at 1 µM / viability at 10 µM: Rattus norvegicus, 72 h
Summary of the method: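 Expanded OPCs seeded at 10,000 cells/well in differentiation media, then exposed to NCC library compounds at 10, 1 and 0.1 µM (quadruplicate, 0.1% DMSO) for three days. Viability read as alamarBlue fluorescence (560/590 nm) after 4 h at 37 °C; tunicamycin 5 ng/ml served as toxicity control.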

[3] = Rattus norvegicus, test compound at 2 uM, NCC library screen, sheet "All OLga data", relative to quetiapine, read-out: 2 uM (% Quet)
[4] = Rattus norvegicus, test compound at 10 uM, NCC library screen, sheet "All OLga data", relative to quetiapine, read-out: 10 uM (% Quet)
[5] = read-out: 0.1 µM (% DMSO), alamarBlue viability, NCC library compound at 0.1 µM, sheet "All Tox data"
[6] = read-out: 1 µM (% DMSO), alamarBlue viability, NCC library compound at 1 µM, sheet "All Tox data"
[7] = read-out: 10 µM (% DMSO), alamarBlue viability, NCC library compound at 10 µM, sheet "All Tox data"
[8] = Rattus norvegicus, 2 uM test compound, relative to quetiapine, sheet "All OLga data", read-out: OL differentiation, 2 uM (% Quet)
[9] = read-out: 0.1 µM (% DMSO), alamarBlue viability of expanded OPCs, compound at 0.1 µM, sheet All Tox data
[10] = read-out: 1 µM (% DMSO), alamarBlue viability of expanded OPCs, compound at 1 µM, sheet All Tox data
[11] = read-out: 10 µM (% DMSO), alamarBlue viability of expanded OPCs, compound at 10 µM, sheet All Tox data
[12] = test compound at 0.4 uM, NCC library screen, sheet "All OLga data", relative to quetiapine
[13] = alamarBlue viability, NCC library compound at 0.1 µM, sheet "All Tox data"
[14] = alamarBlue viability, NCC library compound at 1 µM, sheet "All Tox data"
[15] = alamarBlue viability, NCC library compound at 10 µM, sheet "All Tox data"
[16] = alamarBlue viability of expanded OPCs, compound at 0.1 µM, relative to DMSO control
[17] = alamarBlue viability of expanded OPCs, compound at 1 µM, relative to DMSO control
[18] = alamarBlue viability of expanded OPCs, compound at 10 µM, relative to DMSO control
[19] = Rattus norvegicus, 10 uM test compound, relative to quetiapine, sheet "All OLga data", read-out: OL differentiation, 10 uM (% Quet)

`N[C@@H](C(=O)N[C@@H]1C(=O)N2C(C(=O)O)=C(Cl)CS[C@H]12)c1ccccc1` [Cefaclor] was tested, and the activation at 2 µM [1, 3] was -10.8%, the activation at 10 µM [1, 4] was 27.4% and the viability at 0.1 µM [2, 5] was 90.3%. For the same compound, the viability at 1 µM [2, 6] was 94.6% and the viability at 10 µM [2, 7] was 106%.
`CC(NC(C)(C)C)C(=O)c1cccc(Cl)c1` (stereo not drawn) [Bupropion] gave an activation at 2 µM [1, 8] of 33.6%, a viability at 0.1 µM [2, 9] of 94.3% and a viability at 1 µM [2, 10] of 98.9%. It also gave a viability at 10 µM [2, 11] of 128%.
For `CN1CCN(c2nc3cc(C(F)(F)F)ccc3n3cccc23)CC1.O=C(O)/C=C\C(=O)O.O=C(O)/C=C\C(=O)O` [CGS-12066B], the “0.08 uM (% Quet)” value ([1]; test compound at 0.08 uM, NCC library screen, sheet "All OLga data", relative to quetiapine) was 28.1 % Quet, the “0.4 uM (% Quet)” value [1, 12] was -50.5 % Quet and the “0.1 µM (% DMSO)” value [2, 13] was 78.7 % DMSO. For the same compound, the “1 µM (% DMSO)” value [2, 14] was 44.5 % DMSO and the “10 µM (% DMSO)” value [2, 15] was 16.9 % DMSO.
For `Cc1sc(N)c(C(=O)c2cccc(C(F)(F)F)c2)c1C` [PD 81723], the “0.4 uM (% Quet)” value [1, 12] was 4.2 % Quet, the “2 uM (% Quet)” value ([1]; test compound at 2 uM, NCC library screen, sheet "All OLga data", relative to quetiapine) was -21.8 % Quet and the “0.1 µM (% DMSO)” value [2, 13] was 90.2 % DMSO. For the same compound, the “1 µM (% DMSO)” value [2, 14] was 90.8 % DMSO and the “10 µM (% DMSO)” value [2, 15] was 57.3 % DMSO.
Compound `CCCOc1ccc(C(=O)OCCN(CC)CC)cc1N` [Proxymetacaine, reference compound] has an activation at 2 µM [1, 3] of 75.8%, an activation at 10 µM [1, 4] of 97.5% and an EC50 ([1]; Rattus norvegicus, average EC50 for induction of OL differentiation from independent biological replicates, eight concentrations) of 1 µM. The “hit in OL differentiation assay, MRF-TMC” value ([1]; ● = confirmed hit in this paper's assay) was “●”, the viability at 0.1 µM [2, 5] was 128% and the viability at 1 µM [2, 6] was 179%. The viability at 10 µM [2, 7] was 163%.
`CC(C)NCC(O)COc1cccc2[nH]ccc12` (stereo not drawn) [Pindolol] was tested, and the activation at 2 µM [1, 3] was -2.9%, the activation at 10 µM [1, 4] was -35.6% and the “0.1 µM (% DMSO)” value [2, 16] was 88.9 % DMSO. The “1 µM (% DMSO)” value [2, 17] was 89.4 % DMSO and the “10 µM (% DMSO)” value [2, 18] was 86.5 % DMSO.
`COc1cc(C)c(Cc2cnc(N)nc2N)cc1OC` [Ormetoprim] gave an activation at 2 µM [1, 8] of -23.4%, an activation at 10 µM [1, 19] of -8.2% and a viability at 0.1 µM [2, 9] of 101%. It also gave a viability at 1 µM [2, 10] of 91% and a viability at 10 µM [2, 11] of 95.4%.
Work on `OC(CCN1CCCC1)(c1ccccc1)C1CCCCC1` (stereo not drawn) [Procyclidine] yielded an activation at 0.4 µM ([1]; Rattus norvegicus, test compound at 0.4 uM, NCC library screen, sheet "All OLga data", relative to quetiapine, read-out: 0.4 uM (% Quet)) of 12%, an activation at 2 µM [1, 3] of 11.1% and a viability at 0.1 µM [2, 5] of 86.1%. It also gave a viability at 1 µM [2, 6] of 70.8% and a viability at 10 µM [2, 7] of 56.9%.
With `CC[N+](C)(CC)CCOC(=O)C(O)(c1ccccc1)C1CCCCC1` (stereo not drawn) [Oxyphenonium] the activation at 2 µM [1, 3] was -6.1%, the activation at 10 µM [1, 4] was 36.4% and the viability at 0.1 µM [2, 5] was 92.5%. The viability at 1 µM [2, 6] was 97.2% and the viability at 10 µM [2, 7] was 94.9%.
In the case of `CC(C)(C)NC(=O)[C@H]1CC[C@H]2[C@@H]3CC[C@H]4NC(=O)C=C[C@]4(C)[C@H]3CC[C@]12C` [Finasteride], the activation at 2 µM [1, 8] is reported as -14.4%, the activation at 10 µM [1, 19] is reported as -17.4% and the viability at 0.1 µM [2, 9] is reported as 83.3%. The viability at 1 µM [2, 10] was 85.8% and the viability at 10 µM [2, 11] was 85.3%.
In the case of `C[C@]12C=CC(=O)C=C1CC[C@@H]1[C@@H]2[C@@H](O)C[C@@]2(C)[C@H]1CC[C@]2(O)C(=O)CO` [Prednisolone], the activation at 2 µM [1, 3] is reported as -21.9%, the activation at 10 µM [1, 4] is reported as -15.7% and the “0.1 µM (% DMSO)” value [2, 16] is reported as 117.5 % DMSO. For the same compound, the “1 µM (% DMSO)” value [2, 17] was 112.6 % DMSO and the “10 µM (% DMSO)” value [2, 18] was 109.9 % DMSO.
With `NS(=O)(=O)c1cc2c(cc1C(F)(F)F)NCNS2(=O)=O` [Hydroflumethiazide] the activation at 2 µM [1, 3] was -24.5%, the activation at 10 µM [1, 4] was -39% and the “0.1 µM (% DMSO)” value [2, 16] was 104.6 % DMSO. The “1 µM (% DMSO)” value [2, 17] was 96.9 % DMSO and the “10 µM (% DMSO)” value [2, 18] was 87.1 % DMSO.
For `CC(=O)Nc1nnc(S(N)(=O)=O)s1` [Acetazolamide], the activation at 2 µM [1, 3] was -8.7%, the activation at 10 µM [1, 4] was -43.8% and the “0.1 µM (% DMSO)” value [2, 16] was 89.2 % DMSO. For the same compound, the “1 µM (% DMSO)” value [2, 17] was 90.6 % DMSO and the “10 µM (% DMSO)” value [2, 18] was 87.5 % DMSO.
